Earlier results, collected in patent publication US20070104788A1, “Once-daily administration of central nervous system drugs” (priority 2005, published 2007).
Where two headings read alike, the source gives them in different places.

Conditions: for half life: background statement

In the case of `CN(C)C[C@H]1CCCC[C@]1(O)c1cccc(O)c1` [Ml], the half life is given as 7.4 h.

For `COc1ccc2c3c1O[C@H]1C(=O)CC[C@@]4(O)[C@@H](C2)N(C)CC[C@]314` [oxycodone], the “Half-Life Elimination” value (parent drug) is listed as 0.4 h.

For `COc1cccc([C@@]2(O)CCCC[C@H]2CN(C)C)c1` (racemic) [tramadol], the half life is given as 6.3 h, the “Half-Life Elimination” value (metabolite of tramadol) is given as 7 h and the “Half-Life Elimination” value (parent drug) is given as 5 to 6 h.

For `Cc1cc(C)cc(OCC2CNC(=O)O2)c1` (stereo not shown) [metaxolone], the “Half-Life Elimination” value (after a meal) is given as 2.4 ± 1.2 (after a meal) hours and the “Half-Life Elimination” value (fasting) is given as 9.2 ± 4.8 (fasting) hours.
